In data set [1] the target is human serum albumin (HSA) (Homo sapiens, UniProt P02768). Format: in vitro ADME. The procedure:
Standard physical chemical property determination methods were used. Please see the Supporting Information for details.
Protocol S4. Determination of compounds binding to human serum albumin (HSA).
The determination of compounds binding to human serum albumin (HSA) was carried out by retention time measurements using immobilized HSA HPLC columns obtained from Chiral Technologies Ltd, France. The column dimensions were 50x3 mm. The mobile phase was 50 mM ammonium acetate buffer pH 7.4 and HPLC grade 2-propanol. HPLC Method: flow rate 1.8 ml/min applying 2.5 min 2-propanol gradient up to 30%. From 2.5 min to 4.5 min the 2-propanol concentration in the mobile phase was kept at 30%. From 4.5 min to 4.6 min, the 2-propanol concentration was decreased to 0% and kept like that until the end of the gradient run which was 6 min. A calibration set of compounds was first analyzed for which plasma protein binding data were available: Warfarin, Nizatidine, Bromazepam, Carbamazepine, Budesonide, Nicardipine, Indomethacine, Piroxicam, Naproxen. The calculation of the HSA binding data expressed as %HSA was carried out as described previously.

Data set [2] is described as follows: in vitro. In kind it is in vitro ADME, mouse. The following applies: for t1/2 in mouse microsomes / half-life: mouse microsomes; for half-life: read-out: t1/2 in mouse microsomes. Here is the method: (§1) Protocol S6. Microsomal fraction stability experimental procedure.
(§2) Pooled mouse and human liver microsomes are purchased from Xenotech. Microsomes (final protein concentration 0.5 mg/mL, MgCl2 (final concentration = 5 mM) and test compound (final substrate concentration = 0.5 µM; final DMSO concentration = 0.5%) in 0.1M phosphate buffer pH 7.4 were pre-incubated at 37°C prior to the addition of NADPH (final concentration = 1 mM) to initiate the reaction. The final incubation volume was 600 µL. A control incubation was included for each compound tested where 0.1 M phosphate buffer pH 7.4 is added instead of NADPH (minus NADPH). One control compound was included with each species. All incubations were performed singularly for each test compound. Each compound was incubated for 30 minutes and samples (90 µL) of incubate were taken at 0, 5, 15, 20 and 30 min. The control (minus NADPH) was sampled at 30 min only. The reactions were stopped by the addition of sample to 200 µL Acetonitrile:Methanol 3:1 containing internal standard. The terminated samples were centrifuged at 2.500 rpm for 20 min at 4°C to precipitate the protein.
(§3) Quantitative Analysis: following protein precipitation, the samples were analyzed using specific […]
(§4) Data Analysis: from a plot of ln peak area ratio (compound peak area/internal standard peak area) against time, the gradient of the line was determined. Subsequently, half-life and intrinsic clearance were calculated using the equations below:
(§5) Elimination rate constant (k) = (- gradient)
(§6) Half life (t1/2) (min) = […]
(§7) Intrinsic Clearance (CLint) (mL/min/g protein) = […] where V=Incubation volume mL/g microsomal protein.

A short description of data set [3]: in vitro. In kind it is in vitro ADME, human. The note with it: for t1/2 in human microsomes / half-life: human microsomes; for half-life: read-out: t1/2 in human microsomes. The procedure:
as §1, §2, §3, §4, §5, §6, §7

The conditions of data set [4]: at 1 µM.
The subject of data set [5] is M. tuberculosis H37Rv bacilli. The following applies: cited from earlier work.
The test system of a further data set is H37Rv. Further details: species or system mice. The following applies: mouse, in vivo, po.
A short description of data set [6]: Oral pharmacokinetic studies in mice, peripheral total blood. The note with it: female, C57BL/6, mouse, whole blood.
A further data set in a line: in vivo. The note with it: female, C57BL/6, mouse, po.
The nature of data set [7]: in vitro. The note with it: African green monkey.
In another data set the test system is M. tuberculosis H37Rv. The data set is described as follows: microbe, parasite or virus in culture. Format: cell-based. The note with it: Mycobacterium tuberculosis, aerobic conditions.
Experiment in data set [8]: not given
This is another data set of the same source.

A short description of data set [9]: in vitro. The note with it: plasma, pH 7.4.
A short description of data set [10]: Vero cytotoxicity assay (MTT). The note with it: African green monkey, Vero cells.

Values after ≈ are worked out from the molar mass of the structure shown. Where two headings read alike, the source gives them in different places.

Sequence of human serum albumin (HSA) (P02768 25-609): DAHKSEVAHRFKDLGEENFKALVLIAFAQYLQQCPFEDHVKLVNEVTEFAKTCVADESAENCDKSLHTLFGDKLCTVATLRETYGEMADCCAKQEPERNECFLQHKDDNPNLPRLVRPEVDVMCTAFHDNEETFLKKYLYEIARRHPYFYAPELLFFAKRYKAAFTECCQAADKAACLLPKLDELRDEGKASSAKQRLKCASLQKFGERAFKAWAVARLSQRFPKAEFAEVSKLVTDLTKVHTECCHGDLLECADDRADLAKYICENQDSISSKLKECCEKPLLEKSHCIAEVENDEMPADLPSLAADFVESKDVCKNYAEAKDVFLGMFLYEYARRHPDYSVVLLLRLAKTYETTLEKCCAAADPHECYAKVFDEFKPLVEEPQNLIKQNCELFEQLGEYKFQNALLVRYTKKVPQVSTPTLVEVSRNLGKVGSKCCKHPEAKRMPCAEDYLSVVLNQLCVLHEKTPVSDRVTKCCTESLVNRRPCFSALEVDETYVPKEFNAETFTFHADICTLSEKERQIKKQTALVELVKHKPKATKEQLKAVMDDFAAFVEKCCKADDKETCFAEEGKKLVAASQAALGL

Turning to `COc1ccc(-c2cc(CN3CCOCC3)c(C)n2-c2ccc(C(C)C)cc2)cc1` [Compound 25], the “CHILogD pH 2” value came to 1.36, the “CHILogD pH 7.4” value came to 4.36 and the “CHILogD pH 10.5” value came to 4.86. Besides, the “HSA (%) binding” value in data set [1] was 97.02%. Besides, in the data set “in vitro [2]”, the Cli mouse is recorded as 10.55 mL/min/g and the “t1/2 in mouse microsomes” value is <5 min. For the same molecule, in the data set “in vitro [3]”, the Cli human was 0.5 mL/min/g and the “t1/2 in human microsomes” value was >30 min. Besides, in the data set on Vero cells, the CC50 is 12.9 µM. In addition, the “Tox50, cytotoxicity in HepG2 cells” value in the data set with HepG2 cells worked out at 15.9 µM. Moreover, in [4], the “PPB (%)” value is given as >99.9%.

Take `CC(C)=CCC/C(C)=C/CNCCNC1C2CC3CC(C2)CC1C3` (stereo not drawn) [SQ109]: the “activity against M. tuberculosis H37Rv bacilli in anaerobic models” value in data set [5] was “neither AU1235 nor SQ109 gave detectable activity”.

For `CCCc1ccc(-n2c(-c3ccc(OC)cc3)cc(CN3CCOCC3)c2C)cc1` [Compound 24], the “CHILogD pH 2” value is 1.46, the “CHILogD pH 7.4” value is 4.52 and the “CHILogD pH 10.5” value is recorded as 4.97. The “HSA (%) binding” value in data set [1] is on record as 97.43%. In addition, the “t1/2 in mouse microsomes” value in “in vitro [2]” was >30 min. Besides, in “in vitro [3]”, the Cli human is given as <0.5 mL/min/g and the “t1/2 in human microsomes” value was >30 min. Besides, in the data set on Vero cells, the CC50 came to 31.2 µM. For the same molecule, the “Tox50, cytotoxicity in HepG2 cells” value in the data set with HepG2 cells turned out to be 2.1 µM. In addition, the “PPB (%)” value in data set [4] is >99.9%.

AU1235: the “activity against M. tuberculosis H37Rv bacilli in anaerobic models” value in [5] (ref [17]-[19]) is on record as “neither AU1235 nor SQ109 gave detectable activity”.

Consider `COc1c(N2C[C@@H]3CCCN[C@@H]3C2)c(F)cc2c(=O)c(C(=O)O)cn(C3CC3)c12` [Moxifloxacin], for which the “ED99 (dose that reduces 2 logs bacterial burden in the lungs of mice; 95% confidence interval in parenthesis)” value in the data set on H37Rv is given as 28 (26–29) mg/kg. In addition, in [6] (27.5 mg/kg), the total exposure AUC(0-inf) turned out to be 9.4 µM·h.

Regarding `CO[C@H]1/C=C/O[C@@]2(C)Oc3c(C)c(O)c4c(O)c(c(/C=N/N5CCN(C)CC5)c(O)c4c3C2=O)NC(=O)/C(C)=C\C=C\[C@H](C)[C@H](O)[C@@H](C)[C@@H](O)[C@@H](C)[C@H](OC(C)=O)[C@@H]1C` [Rifampin, reference compound], in the data set on H37Rv, the “ED99 (dose that reduces 2 logs bacterial burden in the lungs of mice; 95% confidence interval in parenthesis)” value is reported as 9.8 (9.0–11) mg/kg. In “in vivo” (10.4 mg/kg), this molecule had an AUC(0-inf) of 102 µM·h. In the data set “in vitro [7]”, this molecule displayed a CC50 at 72 h of 207 µM.

`Cc1c(CN2CCOCC2)cc(-c2ccc(C(C)C)cc2)n1-c1ccc(F)cc1` [Compound 9, 2-Methyl-3-[(morpholin-4-yl)-methyl]-5-[4-(i-propyl)phenyl]-1-[4-(fluoro)phenyl]-1H-pyrrole] returned an MIC against M. tuberculosis H37Rv of 0.12 µM (≈ 0.0471 µg/mL). The “HSA (%) binding” value in [1] (human, pH 7.4) is recorded as 97.71%. Also, the half-life in “in vitro [2]” (pH 7.4) was > 30 min; in the data set “in vitro [3]” (pH 7.4), > 30 min; in “in vivo” (50 mg/kg) it was 60 min. Moreover, in “in vitro [3]” (human, 0.5 µM, pH 7.4), the Cli human is <0.5 mL/min/g. The “ED99 (dose that reduces 2 logs bacterial burden in the lungs of mice; 95% confidence interval in parenthesis)” value with H37Rv is reported as 49 (43–54) mg/kg. Further, the melting point in data set [8] is 120 °C. In addition, the “Tox50, cytotoxicity in HepG2 cells” value with HepG2 cells (human, 48 h) came out at 15.3 µM. In the data set “in vivo” (50 mg/kg), this molecule registered an AUC(0-inf) of 11.6 µM·h. Further, the highest level in “in vivo” (50 mg/kg) (Cmax) was 1620 nM. Moreover, in the data set “in vivo” (50 mg/kg), the Tmax worked out at 60 min. The CC50 at 72 h in the data set “in vitro [7]” turned out to be 50.1 µM. Besides, the chromatographic logD came out at 1.47 in the data set “physchem” (pH 2), 4.57 in “physchem” (pH 7.4) and 4.95 in “physchem” (pH 10.5). Besides, in “in vitro [9]”, the fraction unbound at 1 µM is < 0.001.

In the case of `NNC(=O)c1ccncc1` [Isoniazid], the “ED99 (dose that reduces 2 logs bacterial burden in the lungs of mice; 95% confidence interval in parenthesis)” value in the data set on H37Rv is listed as 0.95 (0.86–1.1 ) mg/kg. The CC50 at 72 h in data set [10] was > 256 µM. This molecule also returned an AUC(0-inf) in data set [6] (0.98 mg/kg) of 5.5 µM·h.

For `CCc1ccc(-c2cc(CN3CCOCC3)c(C)n2-c2ccc(F)cc2)cc1` [Compound 8, 2-Methyl-3-[(morpholin-4-yl)-methyl]-5-[4-(ethyl)phenyl]-1-[4-(fluoro)phenyl]-1H-pyrrole], in the data set with M. tuberculosis H37Rv, the MIC was 0.2 µM (≈ 0.0757 µg/mL). Further, the “HSA (%) binding” value in data set [1] (human, pH 7.4) stood at 97.14%. In the data set “in vitro [2]” (mouse, 0.5 µM, pH 7.4), this molecule showed a Cli mouse of 5.64 mL/min/g. Further, the figures for the half-life in “in vitro [2]” (pH 7.4) and in the data set “in vitro [3]” (pH 7.4) were 12.5 min and > 30 min, respectively. Moreover, the Cli human in the data set “in vitro [3]” (human, 0.5 µM, pH 7.4) was 1.09 mL/min/g. In addition, the melting point in data set [8] turned out to be 107 °C. The “Tox50, cytotoxicity in HepG2 cells” value with HepG2 cells (human, 48 h) was determined as 19.5 µM. Further, the CC50 at 72 h in the data set “in vitro [7]” is 18.9 µM. Also, the chromatographic logD is 1.26 in the data set “physchem” (pH 2), 4.21 in the data set “physchem” (pH 7.4) and 4.64 in the data set “physchem” (pH 10.5). The molecule further gave a fraction unbound at 1 µM in “in vitro [9]” of 0.006.

`CCc1ccc(-c2cc(CN3CCOCC3)c(C)n2-c2ccc(Cl)cc2)cc1` [Compound 11, 2-Methyl-3-[(morpholin-4-yl)-methyl]-5-[4-(ethyl)phenyl]-1-[4-(chloro)phenyl]-1H-pyrrole] came in with an MIC against M. tuberculosis H37Rv of 0.2 µM (≈ 0.079 µg/mL). Further, in data set [1] (human, pH 7.4), the “HSA (%) binding” value is 97.74%. The same molecule returned a Cli mouse in the data set “in vitro [2]” (mouse, 0.5 µM, pH 7.4) of 2.83 mL/min/g. Further, the half-life was 25 min in “in vitro [2]” (pH 7.4) and > 30 min in the data set “in vitro [3]” (pH 7.4). The molecule also came in with a Cli human in the data set “in vitro [3]” (human, 0.5 µM, pH 7.4) of 0.52 mL/min/g. The molecule further gave a melting point in [8] of 134 °C. Besides, the “Tox50, cytotoxicity in HepG2 cells” value in the data set on HepG2 cells (human, 48 h) is listed as 8.8 µM. Besides, the CC50 at 72 h in “in vitro [7]” is > 256 µM. The results for the chromatographic logD in “physchem” (pH 2), in “physchem” (pH 7.4) and in “physchem” (pH 10.5) were 1.42, 4.77 and 5.16, respectively. In addition, the fraction unbound at 1 µM in “in vitro [9]” was < 0.001.

On to `COc1ccc(-n2c(-c3ccc(C)cc3)cc(CN3CCOCC3)c2C)cc1` [Compound 18, 2-Methyl-3-[(morpholin-4-yl)-methyl]-5-[4-(methyl)phenyl]-1-[4-(methoxy)phenyl]-1H-pyrrole], for which the MIC in the data set on M. tuberculosis H37Rv stood at 2 µM (≈ 0.753 µg/mL). Also, the “HSA (%) binding” value in data set [1] (human, pH 7.4) was 95.87%. For the same molecule, in “in vitro [2]” (mouse, 0.5 µM, pH 7.4), the Cli mouse is recorded as 8.92 mL/min/g. Besides, the results for the half-life in the data set “in vitro [2]” (pH 7.4) and in the data set “in vitro [3]” (pH 7.4) were < 5 min and 59.9 min, respectively. In addition, in “in vitro [3]” (human, 0.5 µM, pH 7.4), the Cli human is given as 1.26 mL/min/g. The melting point in data set [8] is 128 °C. Also, the “Tox50, cytotoxicity in HepG2 cells” value in the data set on HepG2 cells (human, 48 h) was 11.7 µM. The molecule also displayed a CC50 at 72 h in “in vitro [7]” of 208 µM. For the same molecule, the chromatographic logD is 1.04 in the data set “physchem” (pH 2), 3.6 in “physchem” (pH 7.4) and 4.12 in “physchem” (pH 10.5). Besides, the fraction unbound at 1 µM in “in vitro [9]” is 0.007.

Values taken from article PMC3578785, “Improved BM212 MmpL3 Inhibitor Analogue Shows Efficacy in Acute Murine Model of Tuberculosis Infection” (PLoS ONE, 2013).
